Data taken from publication PMC5564600 (Oncotarget, 2017).

Experiments:
Experiment in all cases: biochemical
Format in all cases: binding
[1] = target: T1, panel of 442 kinases (Homo sapiens, UniProt P57058); settings: kinase HUNK; for remaining activity at 1 µM: read-out: % of control at 1 µM
T1 construct: purchased Ambit Biosciences (scanMAXX KINOMEscan)
T1 sequence (P57058 1-714): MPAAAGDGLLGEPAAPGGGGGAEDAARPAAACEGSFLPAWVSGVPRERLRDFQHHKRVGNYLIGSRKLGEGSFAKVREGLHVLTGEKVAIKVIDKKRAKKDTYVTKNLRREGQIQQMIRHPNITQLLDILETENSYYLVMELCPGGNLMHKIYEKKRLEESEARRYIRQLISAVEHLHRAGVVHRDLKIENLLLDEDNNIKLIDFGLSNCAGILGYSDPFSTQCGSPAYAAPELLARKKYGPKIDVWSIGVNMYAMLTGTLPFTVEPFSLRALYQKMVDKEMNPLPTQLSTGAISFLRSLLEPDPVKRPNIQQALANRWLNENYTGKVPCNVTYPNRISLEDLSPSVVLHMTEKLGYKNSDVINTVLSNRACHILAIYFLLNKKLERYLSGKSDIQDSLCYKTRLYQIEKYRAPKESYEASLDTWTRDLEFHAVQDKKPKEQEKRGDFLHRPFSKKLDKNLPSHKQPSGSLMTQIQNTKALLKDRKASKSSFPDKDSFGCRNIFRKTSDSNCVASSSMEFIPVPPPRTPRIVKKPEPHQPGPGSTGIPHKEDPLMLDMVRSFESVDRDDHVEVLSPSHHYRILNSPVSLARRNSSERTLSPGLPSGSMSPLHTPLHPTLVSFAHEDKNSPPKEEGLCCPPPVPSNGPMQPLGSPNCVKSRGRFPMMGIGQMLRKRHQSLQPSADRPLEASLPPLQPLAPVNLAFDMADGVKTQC

[2] = target: T2, panel of 442 kinases (Homo sapiens, UniProt P17948); settings: FLT1; for remaining activity at 1 µM: read-out: % of control at 1 µM
T2 construct: purchased Ambit Biosciences (scanMAXX KINOMEscan)

[3] = target: T3, panel of 442 kinases (Homo sapiens, UniProt Q14289); settings: kinase PYK2; for remaining activity at 1 µM: read-out: PYK2 (% of control at 1 µM)
T3 construct: purchased Ambit Biosciences (scanMAXX KINOMEscan)

[4] = target: T4, panel of 442 kinases (Homo sapiens, UniProt P30291); settings: kinase WEE1; for remaining activity at 1 µM: read-out: WEE1 (% of control at 1 µM)
T4 construct: purchased Ambit Biosciences (scanMAXX KINOMEscan)

[5] = target: T5, panel of 442 kinases (Homo sapiens, UniProt Q9H422); settings: kinase HIPK3; for remaining activity at 1 µM: read-out: % of control at 1 µM
T5 construct: purchased Ambit Biosciences (scanMAXX KINOMEscan)

[6] = target: T6, panel of 442 kinases (Homo sapiens, UniProt P48729); settings: CSNK1A1; for remaining activity at 1 µM: read-out: % of control at 1 µM
T6 construct: purchased Ambit Biosciences (scanMAXX KINOMEscan)

[7] = target: T7, panel of 442 kinases (Homo sapiens, UniProt Q9UHD2); settings: kinase TBK1; for remaining activity at 1 µM: read-out: TBK1 (% of control at 1 µM)
T7 construct: purchased Ambit Biosciences (scanMAXX KINOMEscan)
T7 sequence (Q9UHD2 1-729): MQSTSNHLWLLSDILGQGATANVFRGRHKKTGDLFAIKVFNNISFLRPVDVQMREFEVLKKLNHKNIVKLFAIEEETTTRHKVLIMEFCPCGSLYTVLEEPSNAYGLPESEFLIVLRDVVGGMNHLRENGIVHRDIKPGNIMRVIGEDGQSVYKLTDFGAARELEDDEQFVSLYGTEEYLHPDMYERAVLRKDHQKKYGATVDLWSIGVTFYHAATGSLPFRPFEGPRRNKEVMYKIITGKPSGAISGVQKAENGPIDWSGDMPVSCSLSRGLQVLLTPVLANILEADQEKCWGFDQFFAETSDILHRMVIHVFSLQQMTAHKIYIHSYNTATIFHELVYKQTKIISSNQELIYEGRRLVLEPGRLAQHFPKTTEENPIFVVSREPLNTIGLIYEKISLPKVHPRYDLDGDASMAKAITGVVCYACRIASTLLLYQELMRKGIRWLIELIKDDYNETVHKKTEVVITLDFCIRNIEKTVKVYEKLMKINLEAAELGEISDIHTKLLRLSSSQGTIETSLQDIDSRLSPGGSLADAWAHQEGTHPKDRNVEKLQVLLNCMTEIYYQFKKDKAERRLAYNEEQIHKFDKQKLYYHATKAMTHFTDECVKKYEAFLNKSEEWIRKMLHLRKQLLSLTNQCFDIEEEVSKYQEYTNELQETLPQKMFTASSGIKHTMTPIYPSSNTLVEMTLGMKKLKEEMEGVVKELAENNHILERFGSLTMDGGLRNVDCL

[8] = target: T8, panel of 442 kinases (Homo sapiens, UniProt Q9P289); settings: kinase MST4; for remaining activity at 1 µM: read-out: % of control at 1 µM
T8 construct: purchased Ambit Biosciences (scanMAXX KINOMEscan)

[9] = target: T9, panel of 442 kinases (Homo sapiens, UniProt Q04771); settings: ACVR1; for remaining activity at 1 µM: read-out: % of control at 1 µM
T9 construct: purchased Ambit Biosciences (scanMAXX KINOMEscan)
T9 sequence (Q04771 21-509): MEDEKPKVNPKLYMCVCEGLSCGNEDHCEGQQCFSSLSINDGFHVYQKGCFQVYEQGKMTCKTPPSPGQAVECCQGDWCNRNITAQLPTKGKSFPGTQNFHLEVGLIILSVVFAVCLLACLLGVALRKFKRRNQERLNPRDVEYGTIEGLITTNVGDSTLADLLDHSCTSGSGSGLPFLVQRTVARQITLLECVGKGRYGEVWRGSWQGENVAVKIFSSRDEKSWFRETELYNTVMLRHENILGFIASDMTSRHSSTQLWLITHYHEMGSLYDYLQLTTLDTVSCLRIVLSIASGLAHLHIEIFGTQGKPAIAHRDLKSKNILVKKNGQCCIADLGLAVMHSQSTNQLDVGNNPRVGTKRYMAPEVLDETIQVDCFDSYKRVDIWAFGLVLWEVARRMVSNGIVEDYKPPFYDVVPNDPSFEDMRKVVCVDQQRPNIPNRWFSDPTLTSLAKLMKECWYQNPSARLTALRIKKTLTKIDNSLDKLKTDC

[10] = 10 µM, read-out: % of control at 10 µM

T8 sequence (Q9P289 whole entry): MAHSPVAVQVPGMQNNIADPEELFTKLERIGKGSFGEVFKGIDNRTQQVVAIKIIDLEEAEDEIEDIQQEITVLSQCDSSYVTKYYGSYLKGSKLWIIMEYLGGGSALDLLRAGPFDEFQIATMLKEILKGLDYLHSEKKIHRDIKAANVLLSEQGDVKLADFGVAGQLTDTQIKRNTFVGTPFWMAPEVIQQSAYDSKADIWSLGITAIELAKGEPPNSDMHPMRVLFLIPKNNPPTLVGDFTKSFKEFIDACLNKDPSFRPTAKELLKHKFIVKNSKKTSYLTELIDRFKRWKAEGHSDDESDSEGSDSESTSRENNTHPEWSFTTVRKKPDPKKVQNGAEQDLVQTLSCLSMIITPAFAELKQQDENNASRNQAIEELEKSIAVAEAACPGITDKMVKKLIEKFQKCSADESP
T3 sequence (Q14289 whole entry): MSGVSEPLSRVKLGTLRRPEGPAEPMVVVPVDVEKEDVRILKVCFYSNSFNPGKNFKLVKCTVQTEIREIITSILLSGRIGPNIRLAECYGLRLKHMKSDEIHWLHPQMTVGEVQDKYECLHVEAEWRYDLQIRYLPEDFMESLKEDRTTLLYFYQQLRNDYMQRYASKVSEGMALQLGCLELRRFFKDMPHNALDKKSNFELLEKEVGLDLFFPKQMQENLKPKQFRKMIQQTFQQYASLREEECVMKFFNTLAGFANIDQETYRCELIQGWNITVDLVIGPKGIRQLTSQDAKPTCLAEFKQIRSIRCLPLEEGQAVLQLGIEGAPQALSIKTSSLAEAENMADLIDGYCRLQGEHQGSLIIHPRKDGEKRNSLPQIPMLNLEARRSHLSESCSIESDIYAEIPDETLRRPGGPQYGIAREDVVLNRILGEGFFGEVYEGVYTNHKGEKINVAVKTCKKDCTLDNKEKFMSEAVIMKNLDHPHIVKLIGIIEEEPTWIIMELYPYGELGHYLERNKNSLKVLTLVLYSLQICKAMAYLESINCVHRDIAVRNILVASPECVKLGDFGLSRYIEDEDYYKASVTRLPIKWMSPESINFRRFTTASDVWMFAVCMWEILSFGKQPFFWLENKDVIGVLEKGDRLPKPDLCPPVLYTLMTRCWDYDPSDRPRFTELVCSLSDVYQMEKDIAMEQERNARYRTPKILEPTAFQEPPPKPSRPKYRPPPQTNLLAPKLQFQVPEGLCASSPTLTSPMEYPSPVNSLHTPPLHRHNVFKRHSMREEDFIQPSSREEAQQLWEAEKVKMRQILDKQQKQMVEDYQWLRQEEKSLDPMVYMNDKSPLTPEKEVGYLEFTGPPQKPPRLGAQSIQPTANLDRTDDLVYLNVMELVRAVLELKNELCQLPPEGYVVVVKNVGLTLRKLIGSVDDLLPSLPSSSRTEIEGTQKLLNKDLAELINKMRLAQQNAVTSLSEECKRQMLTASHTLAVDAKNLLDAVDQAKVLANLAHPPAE
T5 sequence (Q9H422 whole entry): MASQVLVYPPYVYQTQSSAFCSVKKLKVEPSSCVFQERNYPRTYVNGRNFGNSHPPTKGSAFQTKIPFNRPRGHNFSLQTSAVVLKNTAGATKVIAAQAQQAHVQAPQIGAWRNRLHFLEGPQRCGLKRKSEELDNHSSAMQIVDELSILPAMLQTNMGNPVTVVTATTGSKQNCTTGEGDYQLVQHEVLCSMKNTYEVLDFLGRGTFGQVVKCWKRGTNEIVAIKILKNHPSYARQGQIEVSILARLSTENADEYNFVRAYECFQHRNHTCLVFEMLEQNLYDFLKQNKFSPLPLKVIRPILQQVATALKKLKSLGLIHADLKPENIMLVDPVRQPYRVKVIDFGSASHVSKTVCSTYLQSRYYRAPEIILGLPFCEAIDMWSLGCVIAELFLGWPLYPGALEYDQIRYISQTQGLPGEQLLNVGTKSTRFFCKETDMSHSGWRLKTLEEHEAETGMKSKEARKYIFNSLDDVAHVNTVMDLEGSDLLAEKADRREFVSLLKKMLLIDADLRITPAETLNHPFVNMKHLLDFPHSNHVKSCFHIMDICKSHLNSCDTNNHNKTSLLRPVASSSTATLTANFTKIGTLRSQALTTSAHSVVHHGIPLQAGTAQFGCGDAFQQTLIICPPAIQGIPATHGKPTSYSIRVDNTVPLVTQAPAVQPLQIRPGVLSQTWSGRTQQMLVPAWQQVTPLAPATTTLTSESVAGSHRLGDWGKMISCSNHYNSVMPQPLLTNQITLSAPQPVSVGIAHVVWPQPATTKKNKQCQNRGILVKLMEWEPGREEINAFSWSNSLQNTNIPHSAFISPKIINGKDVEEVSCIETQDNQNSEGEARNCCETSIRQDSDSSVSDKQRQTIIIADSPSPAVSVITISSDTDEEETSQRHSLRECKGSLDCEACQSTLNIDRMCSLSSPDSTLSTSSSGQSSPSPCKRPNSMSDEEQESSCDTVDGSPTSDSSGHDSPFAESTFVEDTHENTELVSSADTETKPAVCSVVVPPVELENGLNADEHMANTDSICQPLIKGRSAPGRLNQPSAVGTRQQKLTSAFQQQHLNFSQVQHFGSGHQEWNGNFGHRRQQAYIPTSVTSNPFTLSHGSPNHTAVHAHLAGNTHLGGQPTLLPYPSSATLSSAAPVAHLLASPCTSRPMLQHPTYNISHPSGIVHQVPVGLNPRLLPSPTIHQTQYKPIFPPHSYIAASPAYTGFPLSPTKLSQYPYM
T6 sequence (P48729 whole entry): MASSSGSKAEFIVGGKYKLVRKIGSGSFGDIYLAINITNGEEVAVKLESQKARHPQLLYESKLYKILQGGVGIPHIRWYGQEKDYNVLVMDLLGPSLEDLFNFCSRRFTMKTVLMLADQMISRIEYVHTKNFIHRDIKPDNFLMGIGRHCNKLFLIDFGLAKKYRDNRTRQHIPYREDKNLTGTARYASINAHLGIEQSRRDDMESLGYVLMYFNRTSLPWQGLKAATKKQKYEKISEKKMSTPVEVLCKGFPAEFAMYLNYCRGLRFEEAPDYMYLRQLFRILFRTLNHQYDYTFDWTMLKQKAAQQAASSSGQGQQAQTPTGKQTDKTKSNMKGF
T4 sequence (P30291 whole entry): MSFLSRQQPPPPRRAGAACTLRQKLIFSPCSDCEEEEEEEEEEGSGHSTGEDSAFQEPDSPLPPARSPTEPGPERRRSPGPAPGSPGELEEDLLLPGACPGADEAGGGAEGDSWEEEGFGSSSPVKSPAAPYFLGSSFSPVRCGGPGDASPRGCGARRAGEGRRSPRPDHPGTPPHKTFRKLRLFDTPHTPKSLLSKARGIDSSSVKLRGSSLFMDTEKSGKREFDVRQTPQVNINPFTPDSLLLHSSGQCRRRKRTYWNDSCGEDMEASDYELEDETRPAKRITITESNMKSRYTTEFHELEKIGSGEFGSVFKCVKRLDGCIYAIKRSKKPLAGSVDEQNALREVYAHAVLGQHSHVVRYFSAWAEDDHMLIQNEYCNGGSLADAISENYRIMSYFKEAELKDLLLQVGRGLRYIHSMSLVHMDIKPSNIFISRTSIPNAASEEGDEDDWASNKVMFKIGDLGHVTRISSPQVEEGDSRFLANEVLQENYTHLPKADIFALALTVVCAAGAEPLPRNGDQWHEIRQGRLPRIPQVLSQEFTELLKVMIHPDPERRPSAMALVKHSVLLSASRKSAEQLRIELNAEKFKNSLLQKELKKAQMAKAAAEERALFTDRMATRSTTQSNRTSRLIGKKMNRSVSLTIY
T2 sequence (P17948 27-1338): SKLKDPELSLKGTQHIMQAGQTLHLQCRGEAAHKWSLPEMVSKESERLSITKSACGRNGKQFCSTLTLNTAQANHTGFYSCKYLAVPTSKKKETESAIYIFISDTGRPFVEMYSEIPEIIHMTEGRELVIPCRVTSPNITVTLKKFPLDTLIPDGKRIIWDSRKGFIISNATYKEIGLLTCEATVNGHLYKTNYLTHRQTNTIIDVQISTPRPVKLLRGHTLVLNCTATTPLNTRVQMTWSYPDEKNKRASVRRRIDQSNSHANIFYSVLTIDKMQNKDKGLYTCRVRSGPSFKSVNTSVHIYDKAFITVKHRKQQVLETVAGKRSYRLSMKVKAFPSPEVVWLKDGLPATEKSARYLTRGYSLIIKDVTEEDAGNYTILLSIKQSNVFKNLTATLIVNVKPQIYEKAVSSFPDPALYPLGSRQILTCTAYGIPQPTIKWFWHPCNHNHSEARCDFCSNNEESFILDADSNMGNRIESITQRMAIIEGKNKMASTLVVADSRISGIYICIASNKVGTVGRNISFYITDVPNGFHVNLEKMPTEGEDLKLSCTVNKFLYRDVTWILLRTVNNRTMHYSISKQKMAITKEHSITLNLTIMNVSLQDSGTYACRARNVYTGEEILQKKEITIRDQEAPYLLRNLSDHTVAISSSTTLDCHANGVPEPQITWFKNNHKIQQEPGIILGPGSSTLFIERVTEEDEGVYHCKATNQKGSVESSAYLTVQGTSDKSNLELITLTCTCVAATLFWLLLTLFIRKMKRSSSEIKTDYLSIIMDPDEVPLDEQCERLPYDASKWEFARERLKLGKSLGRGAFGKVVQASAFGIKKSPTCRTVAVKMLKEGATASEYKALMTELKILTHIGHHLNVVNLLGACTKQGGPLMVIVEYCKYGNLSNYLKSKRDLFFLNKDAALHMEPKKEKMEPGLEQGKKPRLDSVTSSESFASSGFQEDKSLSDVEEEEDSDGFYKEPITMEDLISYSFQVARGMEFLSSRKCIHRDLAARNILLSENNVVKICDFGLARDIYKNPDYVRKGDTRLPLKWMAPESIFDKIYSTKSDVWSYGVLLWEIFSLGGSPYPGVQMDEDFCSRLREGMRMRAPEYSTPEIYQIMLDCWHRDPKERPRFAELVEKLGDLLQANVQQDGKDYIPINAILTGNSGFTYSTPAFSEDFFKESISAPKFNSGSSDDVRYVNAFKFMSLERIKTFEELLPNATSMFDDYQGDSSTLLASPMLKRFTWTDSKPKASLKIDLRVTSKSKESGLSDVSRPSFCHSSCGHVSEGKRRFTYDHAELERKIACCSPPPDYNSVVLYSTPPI

SMILES | remaining activity at 1 µM [1] [%] | remaining activity at 10 µM [1, 10] [%] | remaining activity at 1 µM [2] [%] | remaining activity at 10 µM [2, 10] [%] | remaining activity at 1 µM [3] [%] | remaining activity at 10 µM ([3]; 10 µM, read-out: PYK2 (% of control at 10 µM)) [%] | remaining activity at 1 µM [4] [%] | remaining activity at 10 µM ([4]; 10 µM, read-out: WEE1 (% of control at 10 µM)) [%] | remaining activity at 1 µM [5] [%] | remaining activity at 10 µM [5, 10] [%] | remaining activity at 1 µM [6] [%] | remaining activity at 10 µM [6, 10] [%] | remaining activity at 1 µM [7] [%] | remaining activity at 10 µM ([7]; 10 µM, read-out: TBK1 (% of control at 10 µM)) [%] | remaining activity at 1 µM [8] [%] | remaining activity at 10 µM [8, 10] [%] | remaining activity at 1 µM [9] [%] | remaining activity at 10 µM [9, 10] [%]
Nc1cc(C(F)(F)F)c(-c2cc(N3CCOCC3)nc(N3CCOCC3)n2)cn1 [Buparlisib] | 100 | 100 | 100 | 100 | 100 | 100 | 100 | 100 | 92 | 98 | 88 | 100 | 99 | 100 | 100 | 74 | 100 | 100
Cn1c(=O)n(-c2ccc(C(C)(C)C#N)cc2)c2c3cc(-c4cnc5ccccc5c4)ccc3ncc21 [Dactolisib, 2-methyl-2-[4-(3-methyl-2-oxo-8-quinolin-3-yl-2,3-dihydroimidazo[4,5-c]quinolin-1-yl)-phenyl] propionitrile] | 93 | – | 86 | – | 86 | – | 100 | – | 94 | – | 99 | – | 93 | – | 76 | – | 65 | –
COc1ncc(-c2ccc3nccc(-c4ccnnc4)c3c2)cc1NS(=O)(=O)c1ccc(F)cc1F [Omipalisib] | 74 | – | 100 | – | 100 | – | 100 | – | 88 | – | 100 | – | 100 | – | 91 | – | 100 | –
FC(F)c1nc2ccccc2n1-c1nc(N2CCOCC2)nc(N2CCOCC2)n1 [ZSTK474, 2-(difluoromethyl)-1-[4,6-di(4-morpholinyl)-1,3,5-triazin-2-yl]-1H-benzimidazole] | 100 | – | 100 | – | 100 | – | 100 | – | 89 | – | 91 | – | 100 | – | 68 | – | 76 | –
